Measurements: patent US20230172919A1, “AN INSULIN SENSITIZER FOR USE IN THE PREVENTION AND/OR TREATMENT OF THE DAMAGES CAUSED BY RETINAL DETACHMENT” (SORBONNE UNIVERSITE, priority 2020, published 2023)

How the values were obtained:
[1] = system: PNA+CAR+ cones of C57BL/6J retinal explants; test: Retinal explants culture, cone quantification; assay type: cell-based, mouse (C57BL/6J); conditions: 5-day retinal explants
Protocol: C57BL/6J retina were prepared and placed on polycarbonate filters floating on Dulbecco’s modified Eagle’s medium (DMEM, Thermo Fisher Scientific) with the photoreceptors facing down. For the experiment, retinal explants were cultured in high glucose (25 mM) DMEM alone or supplemented with human insulin (Umuline NPH), human insulin and insulin receptor inhibitor (Hydroxy-2-naphthalenylmethylphosphonic acid (HNMPA), Abcam) or vehicle (DMSO) at 37° C. […] For this reason, HNMPA was used at a concentration 10-fold higher than the IC50 (1 mM). Each culture medium was renewed every 36 hours and after 5 days, the retinal explants were carefully removed. Immunohistochemistry and cones quantification were then performed as described for retina below.
Eyes were enucleated, fixed in 4% paraformaldehyde for 1 hour at room temperature and sectioned at the limbus; the cornea and lens were discarded. […] The retinas were flat mounted and viewed with a fluorescence microscope (DM5500, Leica). […] Each cell population was manually counted in a masked fashion. IBA-1+ cells were quantified on flat mounts on the outer segment side of the detached retina while PNA+ cone arrestin+ cells were counted on confocal microscopy Z-stacks using ImageJ software.

[2] = system: RD-induced cone loss and subretinal IBA-1+ MPs in C57BL/6J mice; test: Mouse model of RD (retinal detachment), retinal flat mount quantification; assay type: in vivo, mouse (C57BL/6J); conditions: for number of PNA+CAR+ cones (cone survival) / numbers of subretinal IBA1+ MPs: day 7 after RD, subretinal injection in diluted sodium hyaluronate (insulin 2 IU/ml, IGF-1 200 ng/ml, metformin 50 mg/ml), compared to PBS controls
Protocol: Wild-type (C57BL/6J) mice were purchased from Janvier Labs at the age of 8 weeks. Mice were housed in the animal facility under specific pathogen-free condition, in a 12 h/12 h light/dark (100-500 lux) cycle with water and normal diet food available ad libitum. All experimental protocols and procedures were approved by the local animal care ethics committee (N°APAFIS#5201-20160427103344).
RD was induced with a previously described method (Nakazawa et al., 2006, 2007a, 2011). Briefly, mice were anesthetized with an intraperitoneal injection of xylazine hydrochloride (10 mg/kg) and ketamine hydrochloride (100 mg/kg) and pupils were dilated with topical phenylephrine (5%) and tropicamide (0.5%). A 30-gauge needle was first used to create two sclerotomies 1.5 mm posterior to the limbus. A glass needle (with a […] manually beveled tip) connected to a Hamilton syringe filled with diluted sodium hyaluronate (Healon GV®, Alcon) was then introduced into the vitreous cavity through one of the sclerotomy. The tip of the needle was finally inserted into the subretinal space through a peripheral retinotomy and 4 µl of diluted sodium hyaluronate containing or not recombinant human TSP-1 (100 µg/ml, Biotechne), human insulin (2 IU/ml, Umuline NPH), recombinant IGF-1 (200 ng/ml, Biotechne) or metformin (50 mg/ml), was gently injected, detaching approximately two-third of the retina from the underlying RPE.
For treatment with rosiglitazone, mice received intraperitoneal injections of 10 mg/kg rosiglitazone or vehicle (5% DMSO) 3 days before and 4 to 7 days after RD induction.
Eyes with subretinal hemorrhage were excluded from analysis. Mice were sacrificed from 1 to 10 days following RD, according to the experiment.
Eyes were enucleated, fixed in 4% paraformaldehyde for 1 hour at room temperature and sectioned at the limbus; the cornea and lens were discarded. The retinas were peeled from the RPE/choroid/sclera and incubated overnight at 4° C. in PBS-1% triton with the following primary antibodies: peanut agglutinin Alexa fluor® 594 (Thermo Fisher Scientific; 1/100), rabbit polyclonal anti-human cone arrestin antibody (LUMIF-hCAR; 1:10000) and goat polyclonal anti-IBA1 (1/100). After few washes, the retinas were incubated for 2 hours at room temperature with appropriate Alexa Fluor® conjugated secondary antibodies (Thermo Fisher Scientific; 1:500) in PBS-1% triton and nuclei were counterstained with Hoechst (1:1000, Sigma Aldrich). The retinas were flat mounted and viewed with a fluorescence microscope (DM5500, Leica). Images centered on the area with the lowest number of PNA+ cone arrestin+ cells were captured with a confocal laser-scanning microscope (FV1000, Olympus) using a 40X lens. Each cell population was manually counted in a masked fashion. IBA-1+ cells were quantified on flat mounts on the outer segment side of the detached retina while PNA+ cone arrestin+ cells were counted on confocal microscopy Z-stacks using ImageJ software.

Row | Compound | PNA+CAR+ cones after addition of insulin receptor inhibitor ([1]; high glucose DMEM with human insulin, HNMPA 1 mM, versus vehicle (DMSO)) | number of PNA+CAR+ cones (cone survival) [2] | numbers of subretinal IBA1+ MPs [2] | number of infiltration of subretinal IBA-1+ MPs ([2]; day 7 of RD, daily intraperitoneal 10 mg/kg from 3 days before and throughout RD, versus vehicle (DMSO 5%)) | cone survival (PNA+CAR+ cones) ([1]; high glucose (25 mM) DMEM, human insulin 5 mIU/ml, compared to the control condition)
1 | O=P(O)(O)C(O)c1ccc2ccccc2c1 (stereo not drawn) [HNMPA, Hydroxy-2-naphthalenylmethylphosphonic acid, reference compound] | severe loss |  |  |  | 
2 | CN(C)C(=N)N=C(N)N [metformin, reference compound] |  | increased | significantly decreased |  | 
3 | CN(CCOc1ccc(CC2SC(=O)NC2=O)cc1)c1ccccn1 (stereo not drawn) [rosiglitazone, reference compound] |  |  |  | no effect | 
4 | IGF-1: recombinant IGF-1 (Biotechne), insulin-like growth factor |  | no effect | no effect |  | 
5 | insulin: human insulin (Umuline NPH) |  | very significantly increased | did not alter |  | significantly increased
